Laboratory results from US9518038B2, “Condensation product of theanine derivative and carboxylic acid coumarin derivative, its intermediate, preparation method and use thereof” (SHANDONG YINGDONG YINGHAO BIOTECHNOLOGY, INC., priority 2012, dated 2016).
Several values for one entry are separate records, joined by “and”; a condition that tells them apart may be missing. Equal values may be shown once. Read-outs that look alike come from different tables or passages of the source.

Assays:
[1] = target: T1, EZH2 (Homo sapiens, UniProt Q15910); assay: EZH2 enzyme activity in protein extracts of human tumor xenografts of treated mice (EZH2 Assay Kit); format: in vivo; conditions: tumors excised 6 h after medication, SAHA 25 mg/kg; for inhibition: read-out: decrease of EZH2 enzyme activity/inhibition rate
T1 construct: the EZH2 enzyme was replaced with tumor protein extracts in each group; from tissue; host or cells: human tumour xenografts excised from treated nude mice

[2] = target: T2, EZH2 (Mus musculus, UniProt Q61188); assay: EZH2 enzyme activity in protein extracts of LLC tumors of treated mice (EZH2 Assay Kit); conditions: mouse; LLC tumor grown in vivo; tumors excised 6 h after medication; SAHA 25 mg/kg; read-out: decrease of EZH2 enzyme activity/inhibition rate
T2 construct: the EZH2 enzyme was replaced with tumor protein extracts in each group; from tissue; host or cells: Lewis lung cancer tumours from treated mice
T2 sequence (Q61188 whole entry): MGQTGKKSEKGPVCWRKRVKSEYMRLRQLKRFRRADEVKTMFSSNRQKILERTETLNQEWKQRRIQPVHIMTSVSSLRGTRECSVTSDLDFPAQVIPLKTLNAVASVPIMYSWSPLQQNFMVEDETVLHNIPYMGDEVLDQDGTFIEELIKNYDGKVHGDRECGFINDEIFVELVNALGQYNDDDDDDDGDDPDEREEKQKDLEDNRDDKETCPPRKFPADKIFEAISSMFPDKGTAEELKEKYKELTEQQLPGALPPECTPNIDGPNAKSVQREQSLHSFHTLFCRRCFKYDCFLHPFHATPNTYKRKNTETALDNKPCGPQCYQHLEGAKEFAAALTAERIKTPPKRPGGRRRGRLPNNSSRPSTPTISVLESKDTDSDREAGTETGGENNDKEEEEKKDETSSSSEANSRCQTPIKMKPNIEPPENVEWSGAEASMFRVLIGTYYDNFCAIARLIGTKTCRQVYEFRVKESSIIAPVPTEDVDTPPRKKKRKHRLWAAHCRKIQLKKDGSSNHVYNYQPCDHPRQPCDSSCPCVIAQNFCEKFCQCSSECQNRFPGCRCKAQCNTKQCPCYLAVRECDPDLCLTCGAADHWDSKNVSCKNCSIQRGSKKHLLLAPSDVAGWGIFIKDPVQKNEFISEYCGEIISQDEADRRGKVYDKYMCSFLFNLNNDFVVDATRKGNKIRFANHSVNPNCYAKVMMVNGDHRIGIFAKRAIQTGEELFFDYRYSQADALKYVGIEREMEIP
T2 sequence (Q921E6 whole entry partner): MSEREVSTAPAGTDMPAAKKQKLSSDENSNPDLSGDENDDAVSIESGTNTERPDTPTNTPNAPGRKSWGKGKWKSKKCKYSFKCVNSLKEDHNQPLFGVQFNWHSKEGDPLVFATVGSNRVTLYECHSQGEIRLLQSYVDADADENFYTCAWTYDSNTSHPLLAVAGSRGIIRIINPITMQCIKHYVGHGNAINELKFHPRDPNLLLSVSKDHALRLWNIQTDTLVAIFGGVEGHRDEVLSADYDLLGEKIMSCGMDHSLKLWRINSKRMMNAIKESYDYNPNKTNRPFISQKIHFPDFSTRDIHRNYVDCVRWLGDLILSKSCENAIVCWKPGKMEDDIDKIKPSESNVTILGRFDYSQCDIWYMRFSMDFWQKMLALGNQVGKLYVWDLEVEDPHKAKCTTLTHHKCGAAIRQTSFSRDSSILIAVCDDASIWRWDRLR
T2 sequence (Q80U70 whole entry partner): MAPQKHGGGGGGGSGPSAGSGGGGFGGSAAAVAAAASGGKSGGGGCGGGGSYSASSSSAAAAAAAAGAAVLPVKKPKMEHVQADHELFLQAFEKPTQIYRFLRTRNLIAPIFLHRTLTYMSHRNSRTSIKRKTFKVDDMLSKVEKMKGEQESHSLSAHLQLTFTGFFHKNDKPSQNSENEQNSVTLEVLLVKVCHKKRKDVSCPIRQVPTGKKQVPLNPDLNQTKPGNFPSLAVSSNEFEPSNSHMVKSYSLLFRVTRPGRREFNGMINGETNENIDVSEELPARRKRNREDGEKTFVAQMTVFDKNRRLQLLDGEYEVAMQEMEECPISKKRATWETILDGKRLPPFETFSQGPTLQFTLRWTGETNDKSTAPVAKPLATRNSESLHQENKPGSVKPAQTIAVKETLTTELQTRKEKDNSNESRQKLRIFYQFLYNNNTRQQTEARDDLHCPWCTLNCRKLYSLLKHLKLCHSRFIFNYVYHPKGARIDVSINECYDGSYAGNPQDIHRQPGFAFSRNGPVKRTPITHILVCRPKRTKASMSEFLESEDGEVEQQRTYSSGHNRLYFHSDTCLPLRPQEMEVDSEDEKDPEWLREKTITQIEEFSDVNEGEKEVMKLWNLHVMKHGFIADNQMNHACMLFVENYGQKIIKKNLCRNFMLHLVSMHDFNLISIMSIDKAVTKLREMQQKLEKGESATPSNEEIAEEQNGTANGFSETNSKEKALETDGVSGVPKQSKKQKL

T1 sequence (Q15910 whole entry): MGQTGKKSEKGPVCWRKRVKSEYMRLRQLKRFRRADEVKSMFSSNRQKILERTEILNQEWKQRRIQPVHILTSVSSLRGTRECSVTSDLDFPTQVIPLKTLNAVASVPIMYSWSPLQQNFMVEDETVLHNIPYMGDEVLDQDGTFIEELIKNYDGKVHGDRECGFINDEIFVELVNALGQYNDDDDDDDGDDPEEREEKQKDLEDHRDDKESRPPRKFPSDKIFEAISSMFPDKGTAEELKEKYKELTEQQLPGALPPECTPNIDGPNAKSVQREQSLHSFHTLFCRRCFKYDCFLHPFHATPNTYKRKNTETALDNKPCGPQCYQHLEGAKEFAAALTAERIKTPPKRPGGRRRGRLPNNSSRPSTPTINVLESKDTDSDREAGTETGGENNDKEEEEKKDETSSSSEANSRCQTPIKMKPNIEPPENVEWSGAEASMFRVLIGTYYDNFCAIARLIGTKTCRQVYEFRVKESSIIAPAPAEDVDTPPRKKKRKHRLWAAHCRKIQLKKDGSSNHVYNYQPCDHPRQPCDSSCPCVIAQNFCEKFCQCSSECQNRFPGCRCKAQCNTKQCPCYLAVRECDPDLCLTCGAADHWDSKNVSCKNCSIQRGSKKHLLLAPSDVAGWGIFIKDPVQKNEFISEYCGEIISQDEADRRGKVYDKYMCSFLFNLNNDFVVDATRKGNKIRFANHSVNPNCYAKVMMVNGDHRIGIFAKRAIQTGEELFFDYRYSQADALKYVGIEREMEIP
T1 sequence (O75530 whole entry partner): as the sequence (Q921E6 whole entry partner) above
T1 sequence (Q15022 whole entry partner): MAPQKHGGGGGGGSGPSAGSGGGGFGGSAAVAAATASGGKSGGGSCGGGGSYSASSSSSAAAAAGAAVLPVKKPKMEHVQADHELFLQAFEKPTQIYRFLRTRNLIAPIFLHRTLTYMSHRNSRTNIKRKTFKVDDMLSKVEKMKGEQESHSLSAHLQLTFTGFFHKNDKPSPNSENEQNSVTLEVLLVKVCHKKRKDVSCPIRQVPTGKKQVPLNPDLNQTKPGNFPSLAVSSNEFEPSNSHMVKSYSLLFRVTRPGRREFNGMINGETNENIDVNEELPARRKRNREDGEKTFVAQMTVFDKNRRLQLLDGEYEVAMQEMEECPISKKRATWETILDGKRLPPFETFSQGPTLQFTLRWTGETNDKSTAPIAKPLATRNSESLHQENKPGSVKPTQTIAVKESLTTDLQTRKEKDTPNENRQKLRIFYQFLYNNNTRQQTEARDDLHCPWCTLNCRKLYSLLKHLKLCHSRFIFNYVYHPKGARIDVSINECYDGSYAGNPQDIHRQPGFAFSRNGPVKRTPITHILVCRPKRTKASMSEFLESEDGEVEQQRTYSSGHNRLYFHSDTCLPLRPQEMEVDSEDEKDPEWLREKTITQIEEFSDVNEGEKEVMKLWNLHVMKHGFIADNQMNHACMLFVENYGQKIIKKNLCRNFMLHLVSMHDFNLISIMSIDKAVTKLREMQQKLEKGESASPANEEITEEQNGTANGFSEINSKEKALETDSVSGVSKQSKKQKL

What does the source list for `O=C(CCCCCCC(=O)Nc1ccccc1)NO` [SAHA, suberoylanilide hydroxamic acid, reference compound]?
inhibition ([1]; A549, A549 tumor grown in vivo): 52%; decrease of EZH2 enzyme activity/inhibition rate ([1]; A549 tumor grown in vivo): 53%*(A549)-; inhibition ([1]; MCF7, MCF7 tumor grown in vivo): 52%; decrease of EZH2 enzyme activity/inhibition rate ([1]; MCF7 tumor grown in vivo): 53%*(MCF7); decrease of EZH2 enzyme activity/inhibition rate ([1]; MDA-MB231 tumor grown in vivo): 55%*(MDA-MB231); inhibition ([1]; MDA-MB-231, MDA-MB231 tumor grown in vivo): 54%; decrease of EZH2 enzyme activity/inhibition rate ([1]; SMMC7721 tumor grown in vivo): 49%*(SMMC-7721); and 49%*(SMMC7721);; inhibition ([1]; SMMC-7721, SMMC7721 tumor grown in vivo): 48%; inhibition [2]: 50%
